This passage reports IC50 results from patent US20070254910A1, “CHEMICAL COMPOUNDS” (priority 2004, published 2007).

One test has as its system HIV. Briefly: HOS HIV anti-infectivity assay (strain not stated). It counts as cell-based. To be noted: HOS HIV anti-infectivity assay; read-out: Activity Level. How it is done:
Compounds were profiled against two HIV-1 viruses, the M-tropic (CCR5 utilizing) Ba-L strain and the T-tropic (CXCR4 utilizing) IIIB strain. Both viruses were propagated in human peripheral blood lymphocytes. Compounds were tested for there ability to block infection of the HOS cell line (expressing hCXCR4/hCCR5/hCD4/pHIV-LTR-luciferase) by either HIV-1 Ba-L or HIV-1 IIIB. Compound cytotoxicity was also examined in the absence of virus addition.
HOS cells (expressing hCXCR4/hCCR5/hCD4/pHIV-LTR-luciferase) were harvested and diluted in Dulbeccos modified Eagles media supplemented with 2% FCS and non-essential amino acid to a concentration of 60,000 cells/ml. The cells were plated into 96-well plates (100 ul per well) and the plates were placed in a tissue culture incubator (37° C.; 5% CO2/95% air) for a period of 24 h.
Subsequently, 50 ul of the desired drug solution (4 times the final concentration) was added to each well and the plates were returned to the tissue culture incubator (37° C.; 5% CO2/95% air) for 1 h. Following this incubation 50 ul of diluted virus was added to each well (approximately 2 million RLU per well of virus). The plates were returned to the tissue culture incubator (37° C.; 5% CO2/95% air) and were incubated for a further 96 h.
Following this incubation the endpoint for the virally infected cultures was quantified following addition of Steady-Glo Luciferase assay system reagent (Promega, Madison, Wis.). Cell viability or non-infected cultures was measured using a CellTiter-Glo luminescent cell viability assay system (Promega, Madison, Wis.). All luminescent readouts are performed on a Topcount luminescence detector (Packard, Meridien, Conn.).
On to `CN1CCN(c2cccc3nc(CN(C)C4CCCc5cccnc54)c(C(O)C(F)(F)F)n23)CC1` (centres unmarked) [Example 89B, 2,2,2-Trifluoro-1-(5-(4-methyl-1-piperazinyl)-2-{[methyl(5,6,7,8-tetrahydro-8-quinolinyl)amino]methyl}imidazo[1,2-a]pyridin-3-yl)ethanol], for which the IC50 lay in the range of 100 to 500 nM.

The test is the same for the next values; noted with them: Human immunodeficiency virus 1, HOS HIV anti-infectivity assay; read-out: Activity Level.
In the case of `CN(Cc1nc2cccc(N3CCCNCC3)n2c1CO)[C@H]1CCCc2cccnc21` [Example 48, [5-(Hexahydro-1H-1,4-diazepin-1-yl)-2-({methyl[(8S)-5,6,7,8-tetrahydro-8-quinolinyl]amino}methyl)imidazo[1,2-a]pyridin-3-yl]methanol], the IC50 was < 100 nM.

For `CN(Cc1nc2cccc(N3CCN4CCCC4C3)n2c1CO)[C@H]1CCCc2cccnc21` (stereo partly drawn) [Example 44, [5-(Hexahydropyrrolo[1,2-a]pyrazin-2(1H)-yl)-2-({methyl[(8S)-5,6,7,8-tetrahydro-8-quinolinyl]amino}methyl)imidazo[1,2-a]pyridin-3-yl]methanol], the IC50 was < 100 nM. The same measure, in the same setting: next, `CN(C)[C@H]1CCN(c2cccc3nc(CN(C)[C@H]4CCCc5cccnc54)c(CO)n23)C1` [Example 58, [5-[(3S)-3-(Dimethylamino)-1-pyrrolidinyl]-2-({methyl[(8S)-5,6,7,8-tetrahydro-8-quinolinyl]amino}methyl)imidazo[1,2-a]pyridin-3-yl]methanol]: < 100 nM; `CC(c1nc2cccc(N3CCN(C)CC3)n2c1CO)N(C)[C@H]1CCCc2cccnc21` (stereo partly drawn) [Example 88, [5-(4-Methyl-1-piperazinyl)-2-(1-{methyl[(8S)-5,6,7,8-tetrahydro-8-quinolinyl]amino}ethyl)imidazo[1,2-a]pyridin-3-yl]methanol]: < 100 nM. On to `CN(Cc1nc2cccc(OCCN3CCCCC3)n2c1CO)[C@H]1CCCc2cccnc21` [Example 82, (2-({Methyl[(8S)-5,6,7,8-tetrahydro-8-quinolinyl]amino}methyl)-5-{[2-(1-piperidinyl)ethyl]oxy}imidazo[1,2-a]pyridin-3-yl)methanol], for which the IC50 was < 100 nM.

As for `CCC(O)c1c(CN(C)[C@H]2CCCc3cccnc32)nc2cccc(N3CCN(C)CC3)n12` (stereo partly drawn) [Example 85, 1-[5-(4-Methyl-1-piperazinyl)-2-({methyl[(8S)-5,6,7,8-tetrahydro-8-quinolinyl]amino}methyl)imidazo[1,2-a]pyridin-3-yl]-1-propanol], the IC50 is < 100 nM. Still for that read-out and setting: in the case of `CCOCc1c(CN(C)[C@H]2CCCc3cccnc32)nc2cccc(N3CCN(C)CC3)n12` [Example 87, (8S)—N-{[3-[(Ethyloxy)methyl]-5-(4-methyl-1-piperazinyl)imidazo[1,2-a]pyridin-2-yl]methyl}-N-methyl-5,6,7,8-tetrahydro-8-quinolinamine] it was < 100 nM. As for `CN(Cc1nc2cccc(N3CC[C@@H](N)C3)n2c1CO)[C@H]1CCCc2cccnc21` [Example 60, [5-[(3R)-3-Amino-1-pyrrolidinyl]-2-({methyl[(8S)-5,6,7,8-tetrahydro-8-quinolinyl]amino}methyl)imidazo[1,2-a]pyridin-3-yl]methanol], the IC50 is < 100 nM. Consider `CC(C)N(Cc1nc2cccc(N3CC[C@@H](N(C)C)C3)n2c1CO)[C@H]1CCCc2cccnc21` [Example 70, [5-[(3R)-3-(Dimethylamino)-1-pyrrolidinyl]-2-({(1-methylethyl)[(8S)-5,6,7,8-tetrahydro-8-quinolinyl]amino}methyl)imidazo[1,2-a]pyridin-3-yl]methanol], for which the IC50 is < 100 nM. For the compound `COCc1c(CN(C)[C@H]2CCCc3cccnc32)nc2cccc(N3CCN(C)CC3)n12` [Example 86, (8S)—N-Methyl-N-{[3-[(methyloxy)methyl]-5-(4-methyl-1-piperazinyl)imidazo[1,2-a]pyridin-2-yl]methyl}-5,6,7,8-tetrahydro-8-quinolinamine], the IC50 was < 100 nM.

Turning to `CN1CCN(c2cccc3nc(CN(Cc4ccccc4)[C@H]4CCCc5cccnc54)c(CO)n23)CC1` [Example 40, [5-(4-Methyl-1-piperazinyl)-2-({(phenylmethyl)[(8S)-5,6,7,8-tetrahydro-8-quinolinyl]amino}methyl)imidazo[1,2-a]pyridin-3-yl]methanol], the IC50 was < 100 nM.

Regarding `CN1CCN(c2cccc3nc(CN(C)C4CCCCc5cccnc54)c(CO)n23)CC1` (centres unmarked) [Example 30, (5-(4-Methyl-1-piperazinyl)-2-{[methyl(6,7,8,9-tetrahydro-5H-cyclohepta[b]pyridin-9-yl)amino]methyl}imidazo[1,2-a]pyridin-3-yl)methanol], the IC50 was < 100 nM.

In the case of `COc1ccc([C@H](C)N(Cc2nc3cccc(N4CCN(C)CC4)n3c2CO)[C@H]2CCCc3cccnc32)cc1` [Example 22, [2-({{(1S)-1-[4-(Methyloxy)phenyl]ethyl}[(8S)-5,6,7,8-tetrahydro-8-quinolinyl]amino}methyl)-5-(4-methyl-1-piperazinyl)imidazo[1,2-a]pyridin-3-yl]methanol], the IC50 was < 100 nM. In the case of `CCN(Cc1nc2cccc(N3CCN(C)CC3)n2c1CO)[C@H]1CCCc2cccnc21` [Example 32, [2-({Ethyl[(8S)-5,6,7,8-tetrahydro-8-quinolinyl]amino}methyl)-5-(4-methyl-1-piperazinyl)imidazo[1,2-a]pyridin-3-yl]methanol], the IC50 is < 100 nM. Take `CN(Cc1nc2cccc(OCCN3CCCC3)n2c1CO)[C@H]1CCCc2cccnc21` [Example 80, (2-({Methyl[(8S)-5,6,7,8-tetrahydro-8-quinolinyl]amino}methyl)-5-{[2-(1-pyrrolidinyl)ethyl]oxy}imidazo[1,2-a]pyridin-3-yl)methanol]: the IC50 is < 100 nM. In the case of `CN[C@@H]1CCN(c2cccc3nc(CN(C)[C@H]4CCCc5cccnc54)c(CO)n23)C1` [Example 63, [5-[(3R)-3-(Methylamino)-1-pyrrolidinyl]-2-({methyl[(8S)-5,6,7,8-tetrahydro-8-quinolinyl]amino}methyl)imidazo[1,2-a]pyridin-3-yl]methanol], the IC50 is < 100 nM. As to `CN(C)CCOc1cccc2nc(CN(C)[C@H]3CCCc4cccnc43)c(CO)n12` [Example 78, [5-{[2-(Dimethylamino)ethyl]oxy}-2-({methyl[(8S)-5,6,7,8-tetrahydro-8-quinolinyl]amino}methyl)imidazo[1,2-a]pyridin-3-yl]methanol], the IC50 is < 100 nM. Take `CN(C)[C@@H]1CCN(c2cccc3nc(CN(C)[C@H]4CCCc5cccnc54)c(CO)n23)C1` [Example 46, [5-[(3R)-3-(Dimethylamino)-1-pyrrolidinyl]-2-({methyl[(8S)-5,6,7,8-tetrahydro-8-quinolinyl]amino}methyl)imidazo[1,2-a]pyridin-3-yl]methanol]: the IC50 was < 100 nM. `CC(C)N(Cc1nc2cccc(N3CCN(C)CC3)n2c1CO)[C@H]1CCCc2cccnc21` [Example 34, [2-({(1-Methylethyl)[(8S)-5,6,7,8-tetrahydro-8-quinolinyl]amino}methyl)-5-(4-methyl-1-piperazinyl)imidazo[1,2-a]pyridin-3-yl]methanol]: the IC50 is < 100 nM. `CC(C)N1CCN(c2cccc3nc(CN(C)[C@H]4CCCc5cccnc54)c(CO)n23)CC1` [Example 56, [5-[4-(1-Methylethyl)-1-piperazinyl]-2-({methyl[(8S)-5,6,7,8-tetrahydro-8-quinolinyl]amino}methyl)imidazo[1,2-a]pyridin-3-yl]methanol]: the IC50 is < 100 nM. For the compound `CN1CCN(c2cccc3nc(CN(C)[C@H]4CCCc5cccnc54)c(CO)n23)CC1` [Example 25, [5-(4-Methyl-1-piperazinyl)-2-({methyl[(8S)-5,6,7,8-tetrahydro-8-quinolinyl]amino}methyl)imidazo[1,2-a]pyridin-3-yl]methanol], the IC50 is < 100 nM.

In the case of `CN(C)CCN(C)c1cccc2nc(CN(C)[C@H]3CCCc4cccnc43)c(CO)n12` [Example 28, [5-[[2-(Dimethylamino)ethyl](methyl)amino]-2-({methyl[(8S)-5,6,7,8-tetrahydro-8-quinolinyl]amino}methyl)imidazo[1,2-a]pyridin-3-yl]methanol], the IC50 was < 100 nM. Still for that read-out and setting: next, `CN1CCN(c2cccc3nc(CN(C)C4CCCc5cccnc54)c(C(O)C(F)(F)F)n23)CC1` (centres unmarked) [Example 89A, 2,2,2-Trifluoro-1-(5-(4-methyl-1-piperazinyl)-2-{[methyl(5,6,7,8-tetrahydro-8-quinolinyl)amino]methyl}imidazo[1,2-a]pyridin-3-yl)ethanol]: < 100 nM; `CN1CCC(N(C)c2cccc3nc(CN(C)[C@H]4CCCc5cccnc54)c(CO)n23)C1` (stereo partly drawn) [Example 52, [5-[Methyl(1-methyl-3-pyrrolidinyl)amino]-2-({methyl[(8S)-5,6,7,8-tetrahydro-8-quinolinyl]amino}methyl)imidazo[1,2-a]pyridin-3-yl]methanol]: < 100 nM. Take `CCCN(Cc1nc2cccc(N3CC[C@@H](N(C)C)C3)n2c1CO)[C@H]1CCCc2cccnc21` [Example 68, [5-[(3R)-3-(Dimethylamino)-1-pyrrolidinyl]-2-({propyl[(8S)-5,6,7,8-tetrahydro-8-quinolinyl]amino}methyl)imidazo[1,2-a]pyridin-3-yl]methanol]: the IC50 is < 100 nM.
